Assay results reported in patent publication US12435087B2, “Modulators of DCN-1 and methods of use thereof” (Cellarity, Inc., priority 2023, dated 2025).
Where two headings read alike, the source gives them in different places.

What was measured:
[1] = target: DCN1 (DCUND1) protein PONY domain (Homo sapiens (Human), UniProt Q96GG9); experiment: TR-FRET assay (binding to DCN-1, displacement of FAM-labeled probe)
How it was run: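 Compounds read at 1, 5 and 24 h, 0.1% final DMSO, by TR-FRET between terbium-streptavidin on biotinylated DCN1 PONY domain (E. coli) and a FAM-tagged non-covalent inhibitor probe. Two setups used, 5 nM protein with 20 nM labelled probe, or 0.31 nM protein with 100 nM labelled plus 800 nM unlabelled probe; buffer had TritonX and 200 mM NaCl. % activity relative to high (with probe) and low (without probe) controls.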

DCN1 protein = DCN1 protein (Homo sapiens (Human), UniProt Q96GG9); experiment: Intact protein MS analysis with the RapidFire-TOF system (covalent adduct formation); assay type: binding; details: 400 nM DCN1, incubated at room temperature for 3 hours
Chain of DCN1 protein (Q96GG9 whole entry): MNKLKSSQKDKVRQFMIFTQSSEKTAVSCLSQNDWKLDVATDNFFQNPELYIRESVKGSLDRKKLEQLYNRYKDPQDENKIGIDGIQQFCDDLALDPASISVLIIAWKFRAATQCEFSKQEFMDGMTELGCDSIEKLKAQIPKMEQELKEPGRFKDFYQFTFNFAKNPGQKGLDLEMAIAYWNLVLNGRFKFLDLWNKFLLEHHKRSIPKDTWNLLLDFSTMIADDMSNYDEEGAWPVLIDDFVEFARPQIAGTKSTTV
How it was run: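 Tag-free His-TEV-DCN1 expressed in E. coli at 400 nM in 25 mM Tris-HCl, 200 mM NaCl, 1 mM DTT, incubated with 11 compound concentrations at room temperature for 3 h unless otherwise specified. Quenched with 0.2% formic acid; intact-protein RapidFire Q-TOF MS, deconvoluted to detect parent and compound-adduct masses.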

[2] = 24 hr after treatment with compound, read-out: TR FRET IC50 24 hr
[3] = TR FRET IC50 1 hr (nM), 1 hr after treatment with compound
[4] = read-out: TR FRET IC50 1 hr, 1 hr after treatment with compound

Chain of DCN1 (DCUND1) protein PONY domain (Q96GG9 60-248): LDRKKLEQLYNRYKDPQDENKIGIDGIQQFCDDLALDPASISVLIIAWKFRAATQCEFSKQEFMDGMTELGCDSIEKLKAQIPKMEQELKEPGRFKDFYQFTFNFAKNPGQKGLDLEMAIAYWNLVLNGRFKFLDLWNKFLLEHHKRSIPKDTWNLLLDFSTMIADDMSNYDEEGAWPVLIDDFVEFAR

SMILES | IC50 [1, 2] [nM] | IC50 [1, 3] [nM] | Emax (DCN1 protein) [%] | IC50 [1, 4] [nM] | % Adduct Formation (MS Emax) (DCN1 protein)
CCN1C(=O)[C@H](NC(=O)c2cccc(C(F)(F)F)c2)[C@@H](c2cccc(N3CC=CS3(=O)=O)c2)c2c(C)nn(-c3ccccc3)c21 (racemic) [Compound I-130, rac-N-((4R,5S)-4-(3-(1,1-dioxidoisothiazol-2 (3H)-yl)phenyl)-7-ethyl-3-methyl-6-oxo-1-phenyl-4,5,6,7-tetrahydro-1H-pyrazolo[3,4-b]pyridin-5-yl)-3-(trifluoromethyl)benzamide] | 200 to 1000 | > 3000 | 0 to 30 |  | 
CCN1C(=O)[C@H](NC(=O)c2cccc(C(F)(F)F)c2)[C@@H](c2cccc(NC(=O)C#CCN(C)C)c2)c2c(C)nn(-c3ccccc3)c21 (racemic) [Compound I-133, rac-N-((4R,5S)-4-(3-(4-(dimethylamino)but-2-ynamido)phenyl)-7-ethyl-3-methyl-6-oxo-1-phenyl-4,5,6,7-tetrahydro-1H-pyrazolo[3,4-b]pyridin-5-yl)-3-(trifluoromethyl)benzamide] | ≤ 200 | ≤ 200 | 80 to 100 |  | 
C=C(CN1CCC1)C(=O)Nc1cccc([C@H]2c3c(C)nn(-c4ccccc4)c3N(CC)C(=O)[C@@H]2NC(=O)c2cccc(C(F)(F)F)c2)c1 (racemic) [Compound I-137] | ≤ 200 |  | 80 to 100 | ≤ 200 | 
CCN1C(=O)[C@H](NC(=O)c2cccc(C(F)(F)F)c2)[C@@H](c2cccc(NC(=O)/C=C/C(=O)OC)c2)c2c(C)nn(-c3ccccc3)c21 (racemic) [Compound I-141] | ≤ 200 |  | 80 to 100 | ≤ 200 | 
C/C=C(\CN1CCOCC1)C(=O)Nc1cccc([C@@H]2c3c(C)nn(-c4ccccc4)c3N(CC)C(=O)[C@H]2NC(=O)c2cccc(C(F)(F)F)c2)c1 (racemic) [Compound I-142] | ≤ 200 | ≤ 200 | 80 to 100 |  | 
C=C(CN(C)C)C(=O)Nc1cccc([C@H]2c3c(C)nn(-c4ccccc4)c3N(CC)C(=O)[C@@H]2NC(=O)c2cccc(C(F)(F)F)c2)c1 (racemic) [Compound I-146] | ≤ 200 |  | 80 to 100 | ≤ 200 | 
CC#CC(=O)Nc1ccccc1[C@H]1c2cnn(-c3ccccc3)c2N(CC)C(=O)[C@@H]1NC(=O)c1cccc(C(F)(F)F)c1 (racemic) [Compound I-159] | > 3000 | > 3000 | 0 to 30 |  | 
C/C=C(\CN1CCN(C2COC2)CC1)C(=O)Nc1cccc([C@@H]2c3c(C)nn(-c4ccccc4)c3N(CC)C(=O)[C@H]2NC(=O)c2nccc(C(F)(F)F)n2)c1 (racemic) [Compound I-229] | ≤ 200 | ≤ 200 | 80 to 100 |  | 
C=C(CN1CCOCC1)C(=O)Nc1cccc([C@H]2c3c(C)nn(-c4ccccc4)c3N(CC)C(=O)C2NC(=O)c2cccc(C(F)(F)F)c2)c1 (stereo in doubt) [Compound I-83, N-((4S,5R)-7-ethyl-3-methyl-4-(3-(2-(morpholinomethyl)acrylamido)phenyl)-6-oxo-1-phenyl-4,5,6,7-tetrahydro-1H-pyrazolo[3,4-b]pyridin-5-yl)-3-(trifluoromethyl)benzamide] | ≤ 200 |  |  | ≤ 200 | ++ (MS Emax % adduct formation greater than 30.0 and less than or equal to 80.0)
C=C(CN1CCC1)C(=O)NCc1cccc([C@@H]2c3cnn(-c4ccccc4)c3N(CC)C(=O)[C@H]2NC(=O)c2cccc(C(F)(F)F)c2)c1 [Compound I-1] | ≤ 200 |  | 80 to 100 | ≤ 200 | 
C=C(CN1CCN(C2COC2)CC1)C(=O)NCc1cccc([C@@H]2c3cnn(-c4ccccc4)c3N(CC)C(=O)[C@H]2NC(=O)c2cccc(C(F)(F)F)c2)c1 [Compound I-4] | ≤ 200 |  | 80 to 100 | ≤ 200 | 
C=C(CN1CC2(COC2)C1)C(=O)NCc1cccc([C@@H]2c3cnn(-c4ccccc4)c3N(CC)C(=O)[C@H]2NC(=O)c2cccc(C(F)(F)F)c2)c1 [Compound I-6] | ≤ 200 |  | 80 to 100 | ≤ 200 | 
C=C(CN1CC(F)(F)C1)C(=O)NCc1cccc([C@@H]2c3cnn(-c4ccccc4)c3N(CC)C(=O)[C@H]2NC(=O)c2cccc(C(F)(F)F)c2)c1 [Compound I-14] | ≤ 200 |  | 80 to 100 | ≤ 200 | 
CCN1C(=O)[C@@H](NC(=O)c2cccc(C(F)(F)F)c2)[C@H](c2cccc(NC(=O)C3=C(C(=O)OC)CC3)c2)c2c(C)nn(-c3ccccc3)c21 [Compound I-34] | ≤ 200 |  | 80 to 100 | ≤ 200 | 
C=C(CN1CCC(F)(F)C1)C(=O)NCc1cccc([C@@H]2c3cnn(-c4ccccc4)c3N(CC)C(=O)[C@H]2NC(=O)c2cccc(C(F)(F)F)c2)c1 [Compound I-44] | ≤ 200 | 200 to 1000 | 80 to 100 |  | 
C=C(CN1CCOCC1)C(=O)NCc1cccc([C@@H]2c3cnn(-c4ccccc4)c3N(CC)C(=O)[C@H]2NC(=O)c2cccc(C(F)(F)F)c2)c1 [Compound I-62] | ≤ 200 |  | 80 to 100 | ≤ 200 | 

SMILES | IC50 [1, 2] [nM] | IC50 [1, 3] [nM] | Emax (DCN1 protein) [%] | IC50 [1, 4] [nM] | % Adduct Formation (MS Emax) (DCN1 protein)
C=C(CN(C)C1COC1)C(=O)NCc1cccc([C@@H]2c3cnn(-c4ccccc4)c3N(CC)C(=O)[C@H]2NC(=O)c2cccc(C(F)(F)F)c2)c1 [Compound I-66] | ≤ 200 |  | 80 to 100 | ≤ 200 | 
C=C(CN1CCOCC1)C(=O)NCc1cccc([C@@H]2c3cnn(-c4ccccc4)c3N(CC)C(=O)[C@H]2NC(=O)c2nccc(C(F)(F)F)n2)c1 [Compound I-82] | ≤ 200 |  | 80 to 100 | ≤ 200 | 
C=C(CN1CCOCC1)C(=O)NCc1cccc([C@@H]2c3cnn(-c4ccccc4)c3N(CC)C(=O)[C@H]2NC(=O)c2ccnn2C(F)(F)F)c1 [Compound I-86] | 1000 to 3000 | 1000 to 3000 | 0 to 30 |  | 
C=C(CN1CCOCC1)C(=O)NCc1cccc([C@@H]2c3cnn(-c4ccccc4)c3N(CC)C(=O)[C@H]2NC(=O)c2ccn(C(F)(F)F)n2)c1 [Compound I-135] | ≤ 200 |  | 80 to 100 | ≤ 200 | 
CCN1C(=O)[C@@H](NC(=O)c2cccc(C(F)(F)F)c2)[C@H](c2cccc(NC(=O)/C=C/CN(C)C)n2)c2cnn(-c3ccccc3)c21 [Compound I-214] | ≤ 200 | 200 to 1000 | 80 to 100 |  | 
C=C(CN1CCOCC1)C(=O)NCc1cccc([C@@H]2c3c(C)nn(-c4ccccc4)c3N(CC)C(=O)[C@H]2NC(=O)c2cccc(C(F)(F)F)c2)c1 [Compound I-215] | ≤ 200 |  | 80 to 100 | ≤ 200 | 
C=C(CN1CCN(C2COC2)CC1)C(=O)NCc1cccc([C@@H]2c3cnn(-c4ccccc4)c3N(CC)C(=O)[C@H]2NC(=O)c2cccc(C(F)(F)F)c2)n1 [Compound I-216] | ≤ 200 | 200 to 1000 | 80 to 100 |  | 
C=C(C(=O)NCc1cccc([C@@H]2c3cnn(-c4ccccc4)c3N(CC)C(=O)[C@H]2NC(=O)c2nccc(C(F)(F)F)n2)c1)C(C)N(C)C1COC1 (some centres unmarked) [Compound I-217] | ≤ 200 |  | 80 to 100 | ≤ 200 | 
C=C(CN1CCN(C2COC2)CC1)C(=O)N(C)Cc1cccc([C@@H]2c3cnn(-c4ccccc4)c3N(CC)C(=O)[C@H]2NC(=O)c2cccc(C(F)(F)F)c2)c1 [Compound I-218] | ≤ 200 | ≤ 200 | 80 to 100 |  | 
C=C(CN1CC2(COC2)C1)C(=O)N(C)Cc1cccc([C@@H]2c3cnn(-c4ccccc4)c3N(CC)C(=O)[C@H]2NC(=O)c2cccc(C(F)(F)F)c2)c1 [Compound I-219] | ≤ 200 | 200 to 1000 | 80 to 100 |  | 
C/C=C(\CN1CCN(C2COC2)CC1)C(=O)NCc1cccc([C@@H]2c3cnn(-c4ccccc4)c3N(CC)C(=O)[C@H]2NC(=O)c2nccc(C(F)(F)F)n2)c1 [Compound I-220] | ≤ 200 | 200 to 1000 | 80 to 100 |  | 
C=C(C(=O)NCc1cccc([C@@H]2c3cnn(-c4ccccc4)c3N(CC)C(=O)[C@H]2NC(=O)c2nccc(C(F)(F)F)n2)c1)C(C)N1CC2(COC2)C1 (stereo partly drawn) [Compound I-221, N-((4R,5S)-7-ethyl-4-(3-((2-methylene-3-(2-oxa-6-azaspiro[3.3]heptan-6-yl)butanamido)methyl)phenyl)-6-oxo-1-phenyl-4,5,6,7-tetrahydro-1H-pyrazolo[3,4-b]pyridin-5-yl)-4-(trifluoromethyl)pyrimidine-2-carboxamide] | ≤ 200 |  | 80 to 100 | ≤ 200 | 
C/C=C(\CN1CCN(C2COC2)CC1)C(=O)NCc1cccc([C@@H]2c3cnn(-c4ccccc4)c3N(CC)C(=O)[C@H]2NC(=O)c2cccc(C(F)(F)F)c2)c1 [Compound I-222] | ≤ 200 | 200 to 1000 | 80 to 100 |  | 
C=C(CN1CCN(C2COC2)CC1)C(=O)N(C)Cc1cccc([C@@H]2c3cnn(-c4ccccc4)c3N(CC)C(=O)[C@H]2NC(=O)c2nccc(C(F)(F)F)n2)c1 [Compound I-223] | ≤ 200 |  | 80 to 100 | ≤ 200 | 
CCN1C(=O)[C@@H](NC(=O)c2nccc(C(F)(F)F)n2)[C@H](c2cccc(NC(=O)C3=CCN(C)C3)c2)c2c(C)nn(-c3ccccc3)c21 [Compound I-224] | ≤ 200 | 200 to 1000 | 80 to 100 |  | 
CCN1CC=C(C(=O)Nc2cccc([C@@H]3c4c(C)nn(-c5ccccc5)c4N(CC)C(=O)[C@H]3NC(=O)c3nccc(C(F)(F)F)n3)c2)C1 [Compound I-225] |  | 200 to 1000 | 80 to 100 |  | 
